Test results from patent US9850366B2, “Epdxidized fatty acid alkyl ester plasticizers and methods for making epdxidized fatty acid alkyl ester plasticizers” (Dow Global Technologies LLC, priority 2012, dated 2017).

Columns and labels:
[1] = Solution temperature of PVC in plasticizer (DIN 53408); format: physicochemical; settings: 0.6 g PVC in 15 mL plasticizer, heated at 1° C./min
Experimental: In various embodiments, the polymeric resin (such as PVC) has a solution temperature in the above-described plasticizer of less than 180° C., less than 170° C., or less than 160° C., as determined by Deutsches Institut für Normung (“DIN”) standard method 53 408.
Determine solution temperature in accordance with Deutsches Institut für Normung (“DIN”) 53408. Important test parameters such as the PVC/plasticizer amount and heating rate are optimized to be able to capture differences in solution temperature of different plasticizers in PVC. 0.6 g PVC is accurately weighed in a 20-mL glass vial and 15 mL of plasticizer is added to the PVC. The contents of the glass vial are stirred using a magnetic stirrer and heated using an oil bath at 1° C./min. A thermometer is used to record the temperature of the PVC/plasticizer mixture which is illuminated with a flash-light. When PVC is mixed with a plasticizer, a milky solution is generally obtained. As the temperature of the PVC/plasticizer mixture is raised, the PVC starts to imbibe the plasticizer and becomes translucent. As the temperature is raised further, the PVC particles swell and lose their shape forming a gel. At the solution temperature, a clear solution is obtained.

[2] = Water solubility (water content of plasticizer by Karl Fischer titration after mixing with water); format: physicochemical; settings: Table 1; water uptake of plasticizer at room temperature
Experimental: Water Solubility 20 mL of plasticizer is taken in a beaker and mixed with equal volume of distilled water. The mixture is stirred vigorously at room temperature and allowed to settle in a separating funnel. The mixture forms an emulsion which takes approximately 24 hours to form separate layers of organic and aqueous phases. After 48 hours, the two layers are separated. The aqueous layer is drained and the organic layer containing plasticizer and some water is recovered. The organic layer contains water in dissolved form as well as in the fine emulsion form. This layer is centrifuged at 7000 rpm for one hour. This step separates water trapped in the plasticizer in dispersed form. The plasticizer is further analyzed for water content with the help of wet chemistry methods. Carl Fischer titration method is used to determine the water content in plasticizer.

[3] = format: physicochemical
Experimental: Solubility in PVC is determined according to American Society for Testing and Materials (“ASTM”) method D 3367-98. […] Water solubility of the epoxidized fatty acid alkyl ester is determined according to the procedures described in the Test Methods section, below. Solubility in PVC Measure solubility in PVC according to ASTM D 3367-98. Test parameters, such as the design of centrifuge tubes, soak temperature, soak time, drainage of plasticizer, and centrifuge speed to remove excess plasticizer, are optimized to be able to capture differences in plasticizer absorption and solubilities of different plasticizers in PVC. Centrifuge tubes with a 0.8 mm diameter hole at the bottom are used for the test. […] During the soak time, the plasticizer molecules wet the cell walls of PVC particles and penetrate through it due to its porosity. Once inside, the molecules start filling the void space. After the void space is completely filled with plasticizer, the PVC primary particles start absorbing the plasticizer. This absorption is relatively slow and continues until the primary particles reach saturation limit. It is therefore important to optimize the PVC/plasticizer soaking temperature and time. […] The plasticizer absorbed by PVC is measured from the weight gain of PVC (after accounting for weight gain due to plasticizer absorbed by cotton).

| Molecule | Solution temperature (° C.) [1] | Water solubility (%) [2] | Solubility in PVC (g/100 g PVC) [3] |
| --- | --- | --- | --- |
| CCCCCCCCC1OC1CCCCCCCC(=O)OC (stereo not drawn) [Sample S1, epoxidized methyl oleate] | 114 °C | 0.68% | – |
| CCCCCC1OC1CC1OC1CCCCCCCC(=O)OC (stereo not drawn) [Sample S2, epoxidized methyl linoleate] | 88 °C | – | 244 g/100 g PVC |
| CCCCCCCC[C@H]1O[C@H]1CCCCCCCC(=O)OC(C)C [Sample S7] | 134 °C | – | 34.1 g/100 g PVC |
| epoxidized methyl linolenate [CS2, reference compound] | 124 °C | – | – |
| epoxidized methyl linolenate [CS3, reference compound] | 98 °C | – | – |
| epoxidized methyl linolenate [CS4, reference compound] | 98 °C | – | – |
